Laboratory results as given in paper PMC5065099 (Chemical biology & drug design, 2016).
Read-outs that look alike come from different tables or passages of the source.

What was measured:
AQP1 [1] = target: T1, AQP1 (Homo sapiens, UniProt P29972); format: biochemical
T1 sequence (P29972 1-269): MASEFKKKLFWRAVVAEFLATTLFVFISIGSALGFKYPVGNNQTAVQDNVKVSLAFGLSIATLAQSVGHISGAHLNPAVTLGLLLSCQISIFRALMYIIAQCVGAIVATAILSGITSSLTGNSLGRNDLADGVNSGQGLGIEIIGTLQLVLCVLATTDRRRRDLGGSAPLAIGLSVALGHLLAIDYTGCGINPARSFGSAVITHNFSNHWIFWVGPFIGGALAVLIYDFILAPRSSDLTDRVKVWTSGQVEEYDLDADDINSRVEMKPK

AQP1 [2] = settings: Xenopus oocytes; cited from earlier work

| SMILES | reduction in water transport (inhibitory action) (AQP1 [1]; hypotonic shock, compounds at final 75 μM, HgCl2 50 μM) | inhibition of AQP1 water transport (AQP1 [2]) | reduction in water transport (inhibitory action) (AQP1 [1]) |
| --- | --- | --- | --- |
| [Cl][Hg][Cl] [HgCl2, mercuric chloride] | highly sensitive | – | – |
| CC[N+](CC)(CC)CC [TEA, tetraethylammonium] | – | no inhibition | ineffective |
| CC(=O)Nc1nnc(S(N)(=O)=O)s1 [acetazolamide] | – | no inhibition | – |
